Source: the supplement of paper PMC12420376

Columns and labels:
Experiment in all cases: cell viability relative to untreated control (ex vivo patient spheroids); higher = less cytotoxic
Conditions in all cases: 72 h
Gem105 = test system: Gem105 (ex vivo spheroids of an HRD-negative high-grade serous ovarian cancer)
Experimental: (§1)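 Ex vivo 3D spheroid cultures from dissociated tumours of HGSOC patients (DET3CT platform) were treated for 72 h with dose matrices of carboplatin combined with birinapant or vorinostat (nM). Live (TMRM) and dead (POPO-1) cells were imaged and viability was expressed as % of untreated control.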

Gem030 = test system: Gem030 (ex vivo spheroids of an HRD-positive high-grade serous ovarian cancer)
Experimental: as §1

Gem059 = test system: Gem059 (ex vivo spheroids of an HRD-negative high-grade serous ovarian cancer)
Experimental: as §1

O=C(O)C1(C(=O)O)CCC1.[NH2-].[NH2-].[Pt+2] [Carboplatin] + CC[C@H](NC(=O)[C@H](C)NC)C(=O)N1C[C@@H](O)C[C@H]1Cc1c(-c2[nH]c3cc(F)ccc3c2C[C@@H]2C[C@H](O)CN2C(=O)[C@H](CC)NC(=O)[C@H](C)NC)[nH]c2cc(F)ccc12 [Birinapant]
cell viability [%]
Conditions | partner drug concentration 0 nM | partner drug concentration 0.1 nM | partner drug concentration 1 nM | partner drug concentration 10 nM | partner drug concentration 100 nM | partner drug concentration 1000 nM
Gem030, carboplatin concentration 10 nM | – | 99.1 | 105 | 99.7 | 95.4 | 59.2
Gem030, carboplatin concentration 100 nM | – | 106 | 115 | 102 | 92.5 | 60.8
Gem030, carboplatin concentration 1000 nM | – | 104 | 91.7 | 101 | 88.9 | 59.8
Gem030, carboplatin concentration 10000 nM | 105 | 102 | 99.6 | 94.2 | 90.1 | 59.3
Gem030, carboplatin concentration 100000 nM | 52.2 | 60.7 | 68 | 68.4 | 47.1 | 27.3
Gem059, carboplatin concentration 10 nM | – | 109 | 101 | 119 | 105 | 102
Gem059, carboplatin concentration 100 nM | – | 99.2 | 99.2 | 122 | 97.4 | 106
Gem059, carboplatin concentration 1000 nM | – | 89.4 | 109 | 117 | 106 | 118
Gem059, carboplatin concentration 10000 nM | 100 | 102 | 99.8 | 97.5 | 112 | 99
Gem059, carboplatin concentration 100000 nM | 77.4 | 82.5 | 97.3 | 79.6 | 85.4 | 90.7
Gem105, carboplatin concentration 10 nM | – | 102 | 90.8 | 94.9 | 105 | 72.5
Gem105, carboplatin concentration 100 nM | – | 102 | 82 | 100 | 89.4 | 79.4
Gem105, carboplatin concentration 1000 nM | – | 110 | 89.4 | 109 | 89.2 | 87.6
Gem105, carboplatin concentration 10000 nM | 91.9 | 97.7 | 83.8 | 92.5 | 80 | 81.6
Gem105, carboplatin concentration 100000 nM | 38.7 | 41.1 | 51.4 | 42.1 | 30.3 | 27.6

O=C(O)C1(C(=O)O)CCC1.[NH2-].[NH2-].[Pt+2] [Carboplatin] + O=C(CCCCCCC(=O)Nc1ccccc1)NO [Vorinostat]
cell viability [%]
Conditions | partner drug concentration 0 nM | partner drug concentration 1 nM | partner drug concentration 10 nM | partner drug concentration 100 nM | partner drug concentration 1000 nM | partner drug concentration 10000 nM
Gem030, carboplatin concentration 10 nM | 94 | 101 | 104 | 115 | 100 | 47.4
Gem030, carboplatin concentration 100 nM | 102 | 108 | 107 | 98.2 | 101 | 40.2
Gem030, carboplatin concentration 1000 nM | 107 | 110 | 115 | 105 | 106 | 41
Gem030, carboplatin concentration 10000 nM | 105 | 116 | 102 | 111 | 91.1 | 40
Gem030, carboplatin concentration 100000 nM | 52.2 | 87.2 | 69.8 | 65.9 | 67.5 | 17.9
Gem059, carboplatin concentration 10 nM | 109 | 99.3 | 91.5 | 110 | 103 | 86.5
Gem059, carboplatin concentration 100 nM | 107 | 102 | 105 | 114 | 102 | 95.8
Gem059, carboplatin concentration 1000 nM | 91.5 | 107 | 104 | 96.5 | 110 | 94.4
Gem059, carboplatin concentration 10000 nM | 100 | 103 | 116 | 101 | 114 | 95
Gem059, carboplatin concentration 100000 nM | 77.4 | 81.7 | 81.9 | 71.5 | 85 | 71.2
Gem105, carboplatin concentration 10 nM | 105 | 82.6 | 99.6 | 94.3 | 86.4 | 33.3
Gem105, carboplatin concentration 100 nM | 103 | 90.7 | 96.2 | 93.6 | 84.9 | 34.5
Gem105, carboplatin concentration 1000 nM | 89.2 | 102 | 93.5 | 112 | 84.8 | 39.9
Gem105, carboplatin concentration 10000 nM | 91.9 | 105 | 93.4 | 100 | 79.4 | 36
Gem105, carboplatin concentration 100000 nM | 38.7 | 52.6 | 54 | 53.8 | 31.9 | 10.5
